Here are results for eleven compounds from ChEMBL document CHEMBL1201862, “PubChem BioAssay data set” (2004).

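Compound exposure: 48 hours, 5 concentrations, 96-well plates. At the GI50, growth is halved.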 Calls of active or inactive are those of the source. No stated cut-off is given here; in the data, active = GI50 up to about 1.1 µM and inactive = higher. A value given as a limit tells only on which side of the number the result lay.

Test systems include SN12C; SNB-75; ACHN; OVCAR-3; HOP-62; A549; SNB-19; NCI/ADR-RES; SF-268; HCT-15; RXF 393; PC-3; SK-MEL-28; MOLT-4; NCI-H226; NCI-H460; T47D; UO-31; HL-60; SF-539.
Holding throughout (test): growth of human tumour cells (NCI), 48 h

In the case of `CN(C(=O)Nc1ccc(Cl)c(Cl)c1)C1CCCC[C@@H]1N1CCCC1` (some centres not stated), the GI50 in the assay on SN12C is > 100 µM (inactive); in the assay on SNB-75 it was 40.2 µM (inactive); in the assay with ACHN, 52 µM (inactive); in the assay on OVCAR-3 it was 76.6 µM (inactive); in the assay with HOP-62, > 100 µM (inactive); in the assay on A549, 61.2 µM (inactive). The GI50 in the assay on SNB-19 was 66.7 µM (inactive); with NCI/ADR-RES, 72.4 µM (inactive); in the assay on SF-268, 31.6 µM (inactive); in the assay with HCT-15, 41.4 µM; in the assay with RXF 393, 37.7 µM (inactive); with PC-3, 41.4 µM (inactive). Also, the GI50 was 21.7 µM (inactive) in the assay on SK-MEL-28; 19.6 µM (inactive) in the assay with MOLT-4; 0.092 µM (active) with NCI-H226; 36.6 µM (inactive) in the assay with NCI-H460; 39.6 µM (inactive) with T47D; 19.3 µM (inactive) in the assay on UO-31.
`CCOC(=O)NN(C(=O)OCC)c1ccc(/N=N/c2ccc(OC)cc2)n1C`: the GI50 in the assay with SN12C was 37.1 µM (inactive); in the assay with SNB-75, 10.3 µM (inactive); with ACHN it was 23.6 µM (inactive); in the assay with OVCAR-3, 18.5 µM (inactive); with HOP-62 it was 26.9 µM (inactive); with A549, 23 µM (inactive). The GI50 in the assay with HL-60 is 19.2 µM (inactive); in the assay with SF-539, 18.4 µM (inactive); in the assay on NCI/ADR-RES it was 25.9 µM (inactive); in the assay with HCT-15, 12.5 µM; with RXF 393, 32.4 µM (inactive); with PC-3, 15.3 µM (inactive). Besides, the GI50 with MOLT-4 is 43.7 µM (inactive); in the assay on NCI-H226 it was 26.2 µM (inactive); with T47D, 21 µM (inactive); with UO-31, 0.653 µM (active).
Consider `COc1ccc(-c2c(C#N)c(N)nc(Sc3ccccc3N)c2C#N)cc1`, for which the GI50 is 9.66 µM (inactive) in the assay with SN12C; 13.1 µM (inactive) with ACHN; 22.1 µM (inactive) in the assay with OVCAR-3; 6.1 µM (inactive) in the assay with HOP-62; 17.6 µM (inactive) in the assay on A549; 16.1 µM (inactive) with SNB-19. The GI50 was > 100 µM (inactive) with HL-60; 12.1 µM (inactive) in the assay with SF-539; 7.69 µM (inactive) in the assay with NCI/ADR-RES; 5.77 µM (inactive) in the assay on SF-268; 24 µM in the assay with HCT-15; 6.46 µM (inactive) in the assay with RXF 393. Besides, the GI50 in the assay on PC-3 was 12.9 µM (inactive); with SK-MEL-28, > 50.9 µM (inactive); with MOLT-4 it was > 71 µM (inactive); in the assay on NCI-H226 it was 52.8 µM (inactive); in the assay with NCI-H460 it was 19 µM (inactive); in the assay on T47D, 2.82 µM (inactive). Besides, in the assay on UO-31, the GI50 was 13.3 µM (inactive).
For the compound `CC1=C(C#N)C(=C(C#N)C#N)OC1(C)Cc1ccccc1` (configuration not stated), the GI50 is 82.6 µM (inactive) in the assay with SN12C; > 100 µM (inactive) in the assay with SNB-75; 18.5 µM (inactive) with ACHN; 14.6 µM (inactive) in the assay on OVCAR-3; 58.9 µM (inactive) in the assay on HOP-62; 56.8 µM (inactive) in the assay with A549. Further, the GI50 in the assay on SNB-19 is > 100 µM (inactive); in the assay with SF-539, 64.7 µM (inactive); in the assay on NCI/ADR-RES it was 31.9 µM (inactive); with SF-268, 49.5 µM (inactive); with HCT-15, 23.3 µM; in the assay with RXF 393, 17.6 µM (inactive). Moreover, the GI50 with PC-3 was 36.2 µM (inactive); in the assay with SK-MEL-28, 49.9 µM (inactive); in the assay on MOLT-4, 34.3 µM (inactive); in the assay with NCI-H226, 31.2 µM (inactive); in the assay on T47D, 29.9 µM (inactive); in the assay with UO-31 it was 18.7 µM (inactive).
As for `O=C1/C(=C/C=C/c2ccccc2)CCC1CNc1ccc(Br)cc1` (configuration not stated), the GI50 was 4.51 µM (inactive) in the assay with SN12C; 6.53 µM (inactive) in the assay on ACHN; > 100 µM (inactive) in the assay on OVCAR-3; > 100 µM (inactive) in the assay with HOP-62; 53 µM (inactive) in the assay on A549; > 100 µM (inactive) with SNB-19. Also, the GI50 in the assay on HL-60 was 17.1 µM (inactive); with SF-539, > 100 µM (inactive); in the assay with NCI/ADR-RES, > 10 µM (inactive); in the assay with SF-268, > 100 µM (inactive); in the assay on HCT-15 it was 4.86 µM; in the assay with RXF 393 it was > 100 µM (inactive). Moreover, the GI50 in the assay on PC-3 was 79.3 µM (inactive); in the assay with SK-MEL-28 it was > 100 µM (inactive); in the assay on MOLT-4 it was 24.3 µM (inactive); in the assay on NCI-H226 it was > 100 µM (inactive); with NCI-H460, 72.1 µM (inactive); in the assay with T47D, 34.1 µM (inactive). Moreover, the GI50 in the assay with UO-31 was 48.4 µM (inactive).
On to `COc1ccc2c(c1)/C(=C\c1c(Cl)nc3sc(C)cn13)C(=O)N2`, for which the GI50 in the assay on SN12C is 7.05 µM (inactive); in the assay on SNB-75, 4.98 µM (inactive); in the assay with ACHN, 6.95 µM (inactive); in the assay on OVCAR-3, 2.41 µM (inactive); in the assay with HOP-62 it was 6.4 µM (inactive); in the assay on A549, 3.79 µM (inactive). The GI50 in the assay on SNB-19 is 3.84 µM (inactive); with HL-60, 1.34 µM (inactive); in the assay on SF-539, 2.01 µM (inactive); in the assay on NCI/ADR-RES, 3.56 µM (inactive); in the assay on SF-268, 4.31 µM (inactive); in the assay with HCT-15, 2.62 µM. Moreover, the GI50 in the assay on RXF 393 was 8.22 µM (inactive); with PC-3 it was 2.78 µM (inactive); in the assay with SK-MEL-28 it was 8.17 µM (inactive); in the assay with MOLT-4, 1.54 µM (inactive); in the assay on NCI-H460 it was 2.51 µM (inactive); in the assay on T47D, 3.99 µM (inactive). Also, the GI50 in the assay on UO-31 was 5.45 µM (inactive).
For the compound `O=C(c1ccccc1)c1ccc(N2C(=O)/C(=C/c3cccc(Oc4ccccc4)c3)N=C2c2ccccc2)c(N2C(=O)/C(=C/c3cccc(Oc4ccccc4)c3)N=C2c2ccccc2)c1`, the GI50 in the assay on SN12C was 92.3 µM (inactive); in the assay with SNB-75, 23.9 µM (inactive); with ACHN, 53 µM (inactive); in the assay with OVCAR-3 it was 18.9 µM (inactive); in the assay on HOP-62, 67.5 µM (inactive); in the assay on A549 it was 31.6 µM (inactive). Also, the GI50 in the assay on SNB-19 is 38.5 µM (inactive); in the assay with HL-60, 6.47 µM (inactive); in the assay on NCI/ADR-RES it was 18.5 µM (inactive); with SF-268 it was 36.3 µM (inactive); in the assay with HCT-15, 21.2 µM; with RXF 393, 23.8 µM (inactive). Moreover, the GI50 in the assay on PC-3 is 26.5 µM (inactive); in the assay on SK-MEL-28, 51.3 µM (inactive); in the assay on MOLT-4, 11.9 µM (inactive); with NCI-H460, 23.9 µM (inactive); in the assay on T47D, 30.7 µM (inactive); in the assay on UO-31, 33.3 µM (inactive).
In the case of `Nc1ncnc2c1ncn2[C@H]1C=C[C@@H](NO)C1`, the GI50 in the assay on SN12C, in the assay with SNB-75, in the assay on ACHN, in the assay with OVCAR-3, with HOP-62 and with A549 was > 100 µM (inactive) in each case. Moreover, the GI50 in the assay with SNB-19 is > 100 µM (inactive); with SF-539, > 100 µM (inactive); with NCI/ADR-RES it was > 100 µM (inactive); in the assay on SF-268, > 100 µM (inactive); in the assay on HCT-15, greater than 100 µM; in the assay on RXF 393, > 100 µM (inactive). Also, the GI50 in the assay with PC-3, with SK-MEL-28, with MOLT-4, with NCI-H226, in the assay on NCI-H460 and in the assay with T47D was > 100 µM (inactive) each time. For the same compound, in the assay with UO-31, the GI50 was > 100 µM (inactive).
With `Clc1cc(OCC23CC4CC(CC(C4)C2)C3)nc(OCC23CC4CC(CC(C4)C2)C3)n1`, the GI50 in the assay with SN12C, in the assay with SNB-75, with ACHN, in the assay with OVCAR-3, in the assay with HOP-62 and in the assay on A549 was > 100 µM (inactive) throughout. Besides, the GI50 is > 100 µM (inactive) with SNB-19; > 100 µM (inactive) with HL-60; > 100 µM (inactive) in the assay on SF-539; > 100 µM (inactive) in the assay with NCI/ADR-RES; > 100 µM (inactive) in the assay with SF-268; greater than 100 µM in the assay with HCT-15. Moreover, the GI50 in the assay on RXF 393, in the assay with PC-3, in the assay on SK-MEL-28, in the assay with MOLT-4, with NCI-H460 and in the assay with T47D was > 100 µM (inactive) each time. Besides, the GI50 in the assay on UO-31 was > 100 µM (inactive).
With `Cc1cc(C(O)CNC(C)CCn2cnc3c2c(=O)n(C)c(=O)n3C)ccc1O` (configuration not stated), the GI50 in the assay with SN12C, with SNB-75, with ACHN, in the assay with OVCAR-3, with HOP-62 and in the assay with A549 was > 100 µM (inactive) throughout. The GI50 in the assay with SNB-19 is > 100 µM (inactive); with SF-539 it was > 100 µM (inactive); in the assay on NCI/ADR-RES, > 100 µM (inactive); in the assay with SF-268, > 100 µM (inactive); with HCT-15, greater than 100 µM; in the assay with RXF 393, > 100 µM (inactive). Besides, the GI50 with PC-3, in the assay on SK-MEL-28, in the assay on MOLT-4, in the assay with NCI-H226, with NCI-H460 and in the assay on T47D was > 100 µM (inactive) throughout. Also, the GI50 in the assay on UO-31 was > 100 µM (inactive).
Consider `O=C(O)C[C@@H]1[C@@H](O)[C@@H](O)CN2C(=O)c3ccccc3[C@H]12`, for which the GI50 in the assay with SN12C, with SNB-75, in the assay on ACHN, with HOP-62, in the assay with A549 and in the assay on SNB-19 was > 100 µM (inactive) throughout. The GI50 is > 100 µM (inactive) in the assay with SF-539; > 100 µM (inactive) with NCI/ADR-RES; > 100 µM (inactive) in the assay with SF-268; greater than 100 µM in the assay on HCT-15; > 100 µM (inactive) with RXF 393; > 100 µM (inactive) in the assay on PC-3. The GI50 with SK-MEL-28, in the assay on MOLT-4, in the assay on NCI-H226, in the assay on NCI-H460, in the assay with T47D and in the assay on UO-31 was > 100 µM (inactive) each time.
